According to patent US8460669B2, “Compositions and methods for identifying response targets and treating flavivirus infection responses” (Academia Sinica, priority 2005, dated 2013):

Tests used:
Conditions in all cases: sugar 1 mg/ml
Dectin-1 = molecular target: T1, Dectin-1 (Homo sapiens, UniProt Q9BXN2); assay: Sugar competition EIA, Fc.Dectin-1 binding to GLPS-F3
T1 construct: The extracellular domains of lectin receptors, TREMs and TLTs were cloned by the reverse-transcriptase polymerase chain reaction (RT-PCR); made in house; host or cells: 293-F (FreeStyle 293) cells
T1 sequence (Q9BXN2 66-247 limits assumed): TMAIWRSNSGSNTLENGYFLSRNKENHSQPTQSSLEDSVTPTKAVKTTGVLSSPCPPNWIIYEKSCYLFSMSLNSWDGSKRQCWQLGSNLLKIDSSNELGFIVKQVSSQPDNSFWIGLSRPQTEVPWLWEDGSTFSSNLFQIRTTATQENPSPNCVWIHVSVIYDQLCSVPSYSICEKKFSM
Method: (§1) The interaction between GLPS-F3 and receptor.Fc was then tested. Unbiotinylated GLPS-F3 was immobilized at 100 ng/well as described above, and 100 μL receptor.Fc fusion protein (1 μg/ml in 2 mM MgCl2/2 mM CaCl2/1% BSA/TBST) was added into each well and incubated for 1 hour at room temperature. After washing with TBST, wells were incubated with peroxidase-conjugated goat anti-human IgG Ab (1:5000 dilution, Jackson ImmunoResearch Laboratories) in blocking buffer at room temperature for 30 min. Wells were incubated with 100 μL TMB substrate for 15 min after TBST washing and read at 450 nm in a Fusion plate reader (Perkin Elmer). The results were normalized with respect to Fc.Dectin-1 binding (Dectin-1 is a known lectin receptor that binds to β-1,3-glucan which is the backbone found in GLPS-F3). FIG. 6B depicts in graphical form the affinity of each receptor for GLPS-F3 relative to Dectin-1. […] There was also weaker but positive GLPS-F3 binding ability (25-50% binding intensity compared to Fc.dectin-1) found in Fc.NKG2D, Fc.MINCLE, Fc.mKCR, DCAL1.Fc, DEC205.Fc, Endo180.Fc and NKp30(NCR3).Fc.
(§2) To understand the interaction of GLPS-F3 with specific innate immunity receptors, the polysaccharides mannan and β-glucan and the monosaccharides D-mannose (Man), D-glucose (Glc), N-acetyl-glucosamine (GlcNAc), D-galactose (Gal), N-acetyl-galactosamine (GalNAc), L-fucose (Fuc) and sialic acid, were used in a competition assay. […] The assays were carried out as in Example 9, with the addition of 1 mg/ml of each polysaccharide or monosaccharide.

Langerin = molecular target: T2, Langerin (Homo sapiens, UniProt Q9UJ71); assay: Sugar competition EIA, Fc.Langerin binding to GLPS-F3
T2 construct: The extracellular domains of lectin receptors, TREMs and TLTs were cloned by the reverse-transcriptase polymerase chain reaction (RT-PCR); made in house; host or cells: 293-F (FreeStyle 293) cells
Method: as §1, §2

DC-SIGN = molecular target: T3, DC-SIGN (Homo sapiens, UniProt Q9NNX6); assay: Sugar competition EIA, Fc.DC-SIGN binding to GLPS-F3
T3 construct: The extracellular domains of lectin receptors, TREMs and TLTs were cloned by the reverse-transcriptase polymerase chain reaction (RT-PCR); made in house; host or cells: 293-F (FreeStyle 293) cells
T3 sequence (Q9NNX6 59-404 limits assumed): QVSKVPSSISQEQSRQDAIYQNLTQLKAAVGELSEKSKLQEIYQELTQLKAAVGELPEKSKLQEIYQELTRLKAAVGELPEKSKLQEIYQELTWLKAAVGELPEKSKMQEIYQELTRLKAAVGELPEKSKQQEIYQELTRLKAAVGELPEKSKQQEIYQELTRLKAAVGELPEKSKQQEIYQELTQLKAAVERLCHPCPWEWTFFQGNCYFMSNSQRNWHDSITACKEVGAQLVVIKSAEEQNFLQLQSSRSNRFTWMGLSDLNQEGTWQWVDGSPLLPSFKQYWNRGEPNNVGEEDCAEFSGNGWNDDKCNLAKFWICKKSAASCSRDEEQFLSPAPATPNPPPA
Method: as §1, §2

TLR4.Fc = molecular target: T4, TLR4.Fc (Homo sapiens, UniProt O00206); assay: Sugar competition EIA, TLR4.Fc binding to GLPS-F3
T4 construct: The extracellular domains of several innate immunity receptors from immune cells were cloned by reverse-transcription polymerase chain reaction (RT-PCR); made in house; host or cells: 293-F (FreeStyle 293) cells
Method: as §1, §2

MMR.Fc = molecular target: T5, MMR.Fc (Homo sapiens, UniProt P22897); assay: Sugar competition EIA, MMR.Fc binding to GLPS-F3
T5 construct: The extracellular domains of lectin receptors, TREMs and TLTs were cloned by the reverse-transcriptase polymerase chain reaction (RT-PCR); made in house; host or cells: 293-F (FreeStyle 293) cells
T5 sequence (P22897 19-1389 limits assumed): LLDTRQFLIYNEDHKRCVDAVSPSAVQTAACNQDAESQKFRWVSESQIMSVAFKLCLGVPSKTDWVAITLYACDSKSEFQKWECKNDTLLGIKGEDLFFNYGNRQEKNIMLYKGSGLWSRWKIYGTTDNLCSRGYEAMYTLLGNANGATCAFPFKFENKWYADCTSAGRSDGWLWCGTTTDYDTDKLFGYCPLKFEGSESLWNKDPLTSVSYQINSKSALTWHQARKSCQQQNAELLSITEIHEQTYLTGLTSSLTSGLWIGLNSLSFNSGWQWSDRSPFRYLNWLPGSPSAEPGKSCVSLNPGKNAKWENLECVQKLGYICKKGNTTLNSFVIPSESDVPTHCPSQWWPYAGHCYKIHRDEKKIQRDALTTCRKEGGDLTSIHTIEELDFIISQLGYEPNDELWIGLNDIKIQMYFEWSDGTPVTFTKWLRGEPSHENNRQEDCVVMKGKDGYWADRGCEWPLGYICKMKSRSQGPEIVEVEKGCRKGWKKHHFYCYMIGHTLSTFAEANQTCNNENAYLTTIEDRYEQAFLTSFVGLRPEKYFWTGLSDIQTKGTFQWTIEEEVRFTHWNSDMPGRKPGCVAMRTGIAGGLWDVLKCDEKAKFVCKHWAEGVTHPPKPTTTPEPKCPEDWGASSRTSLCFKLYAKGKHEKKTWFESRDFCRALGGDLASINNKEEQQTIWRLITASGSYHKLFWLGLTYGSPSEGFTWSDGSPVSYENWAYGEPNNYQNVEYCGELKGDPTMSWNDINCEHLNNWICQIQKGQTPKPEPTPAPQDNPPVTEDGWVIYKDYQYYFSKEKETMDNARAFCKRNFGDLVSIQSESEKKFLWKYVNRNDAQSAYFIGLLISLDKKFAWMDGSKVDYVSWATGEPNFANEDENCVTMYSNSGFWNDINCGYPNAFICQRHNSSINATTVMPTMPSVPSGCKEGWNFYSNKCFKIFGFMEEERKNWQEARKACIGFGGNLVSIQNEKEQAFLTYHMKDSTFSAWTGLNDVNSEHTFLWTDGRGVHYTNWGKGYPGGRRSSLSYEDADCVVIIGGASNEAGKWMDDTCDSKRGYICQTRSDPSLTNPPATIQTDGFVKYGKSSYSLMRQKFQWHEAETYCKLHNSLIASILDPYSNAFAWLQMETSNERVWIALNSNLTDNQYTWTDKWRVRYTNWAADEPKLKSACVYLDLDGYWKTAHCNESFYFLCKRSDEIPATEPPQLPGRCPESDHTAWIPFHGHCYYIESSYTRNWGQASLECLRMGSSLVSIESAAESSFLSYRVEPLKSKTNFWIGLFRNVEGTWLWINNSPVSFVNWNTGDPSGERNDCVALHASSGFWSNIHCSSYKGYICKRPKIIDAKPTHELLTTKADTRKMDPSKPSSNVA
Method: as §1, §2

CLEC-2 = molecular target: T6, CLEC-2 (Homo sapiens, UniProt Q9P126); assay: Sugar competition EIA, Fc.CLEC-2 binding to GLPS-F3
T6 construct: The extracellular domains of lectin receptors, TREMs and TLTs were cloned by the reverse-transcriptase polymerase chain reaction (RT-PCR); made in house; host or cells: 293-F (FreeStyle 293) cells
Method: as §1, §2

T2 sequence (Q9UJ71 65-328 limits assumed): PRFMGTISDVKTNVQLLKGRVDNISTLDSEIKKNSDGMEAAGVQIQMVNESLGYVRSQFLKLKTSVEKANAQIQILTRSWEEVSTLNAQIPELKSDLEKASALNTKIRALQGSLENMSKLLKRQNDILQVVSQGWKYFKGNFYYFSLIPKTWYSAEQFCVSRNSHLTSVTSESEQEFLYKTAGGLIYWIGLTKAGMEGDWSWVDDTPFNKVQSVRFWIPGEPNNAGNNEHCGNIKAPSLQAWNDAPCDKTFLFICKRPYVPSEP
T6 sequence (Q9P126 55-229 limits assumed): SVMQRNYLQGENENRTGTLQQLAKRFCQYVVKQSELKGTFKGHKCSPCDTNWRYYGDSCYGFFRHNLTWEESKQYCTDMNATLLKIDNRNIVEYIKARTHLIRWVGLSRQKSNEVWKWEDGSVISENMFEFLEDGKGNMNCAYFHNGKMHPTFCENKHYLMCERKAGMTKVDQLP
T4 sequence (O00206 24-631 limits assumed): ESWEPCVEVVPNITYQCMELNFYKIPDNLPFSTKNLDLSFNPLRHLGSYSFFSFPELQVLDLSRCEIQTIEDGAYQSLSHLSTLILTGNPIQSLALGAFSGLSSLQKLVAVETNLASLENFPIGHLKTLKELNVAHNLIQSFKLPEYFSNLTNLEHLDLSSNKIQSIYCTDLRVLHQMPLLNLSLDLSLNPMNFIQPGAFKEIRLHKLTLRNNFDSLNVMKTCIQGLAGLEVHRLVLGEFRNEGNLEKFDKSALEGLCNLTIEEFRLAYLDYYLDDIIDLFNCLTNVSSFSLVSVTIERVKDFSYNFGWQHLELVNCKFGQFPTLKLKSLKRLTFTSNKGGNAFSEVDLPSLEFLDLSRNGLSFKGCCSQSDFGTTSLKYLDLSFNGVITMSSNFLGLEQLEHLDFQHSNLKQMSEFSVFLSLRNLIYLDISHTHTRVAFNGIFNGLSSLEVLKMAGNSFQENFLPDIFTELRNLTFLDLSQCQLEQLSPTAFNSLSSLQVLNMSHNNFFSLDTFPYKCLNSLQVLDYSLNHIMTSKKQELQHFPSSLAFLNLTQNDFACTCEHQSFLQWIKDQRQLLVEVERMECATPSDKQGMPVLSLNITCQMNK

β-1,3-glucan [b-glucan]
Percentage of binding of Dectin-1 Fc fusion to GLPS-F3 relative to binding in absence of sugar competitor (Dectin-1): 42 ± 0.3% | inhibition of interaction between GLPS-F3 and Fc.Dectin-1 (Dectin-1): 58% | Percentage of binding of Langerin Fc fusion to GLPS-F3 relative to binding in absence of sugar competitor (Langerin): 77 ± 3.2% | Percentage of binding of DC-SIGN Fc fusion to GLPS-F3 relative to binding in absence of sugar competitor (DC-SIGN): 81 ± 1.4% | Percentage of binding of TLR4.Fc to GLPS-F3 relative to binding in absence of sugar competitor (TLR4.Fc): 96 ± 4.0% | Percentage of binding of MMR.Fc to GLPS-F3 relative to binding in absence of sugar competitor (MMR.Fc): 100 ± 4.2% | Percentage of binding of CLEC-2 Fc fusion to GLPS-F3 relative to binding in absence of sugar competitor (CLEC-2): 95 ± 5.1%

mannan
Percentage of binding of Dectin-1 Fc fusion to GLPS-F3 relative to binding in absence of sugar competitor (Dectin-1): 82 ± 0.2% | Percentage of binding of Langerin Fc fusion to GLPS-F3 relative to binding in absence of sugar competitor (Langerin): 5 ± 0.9% | inhibition of interaction between Fc.Langerin and GLPS-F3 (Langerin): 95% | Percentage of binding of DC-SIGN Fc fusion to GLPS-F3 relative to binding in absence of sugar competitor (DC-SIGN): 2 ± 0.5% | inhibition of binding of Fc.DC-SIGN to GLPS-F3 (DC-SIGN): 98% | Percentage of binding of TLR4.Fc to GLPS-F3 relative to binding in absence of sugar competitor (TLR4.Fc): 28 ± 6.3% | inhibition of TLR4.Fc and GLPS-F3 interaction (TLR4.Fc): 72% | Percentage of binding of MMR.Fc to GLPS-F3 relative to binding in absence of sugar competitor (MMR.Fc): 2 ± 0.5% | inhibition of interaction between GLPS-F3 and MMR.Fc (MMR.Fc): 98% | Percentage of binding of CLEC-2 Fc fusion to GLPS-F3 relative to binding in absence of sugar competitor (CLEC-2): 88 ± 6.3%

C[C@H](O)[C@@H](O)[C@@H](O)[C@H](O)C=O [Fuc, L-fucose]
Percentage of binding of Dectin-1 Fc fusion to GLPS-F3 relative to binding in absence of sugar competitor (Dectin-1): 92 ± 5.2% | Percentage of binding of Langerin Fc fusion to GLPS-F3 relative to binding in absence of sugar competitor (Langerin): 76 ± 1.9% | Percentage of binding of DC-SIGN Fc fusion to GLPS-F3 relative to binding in absence of sugar competitor (DC-SIGN): 8 ± 1.8% | inhibition of binding of Fc.DC-SIGN to GLPS-F3 (DC-SIGN): 92% | Percentage of binding of TLR4.Fc to GLPS-F3 relative to binding in absence of sugar competitor (TLR4.Fc): 56 ± 1.9% | inhibition of TLR4.Fc and GLPS-F3 interaction (TLR4.Fc): 44% | Percentage of binding of MMR.Fc to GLPS-F3 relative to binding in absence of sugar competitor (MMR.Fc): 12 ± 2.0% | inhibition of interaction between GLPS-F3 and MMR.Fc (MMR.Fc): 88% | Percentage of binding of CLEC-2 Fc fusion to GLPS-F3 relative to binding in absence of sugar competitor (CLEC-2): 91 ± 8.5%
